Measured values taken from patent US8729089B2 (Gilead Sciences, Inc., priority 2006, dated 2014).

Legend:
[1] = test system: HCV replicon in human hepatoma Huh-7 cell line; assay: Anti-HCV replicon assay (EC50, luciferase); format: cell-based; settings: Hepatitis C virus, Huh-7, 72 h
Method: (§1) The anti-HCV activity of the pyrido[3,2-d]pyrimidine derivatives of this invention was tested in a human hepatoma Huh-7 cell line harboring a HCV replicon. The assay comprised the following steps:
(§2) Step 1: Compound Preparation and Serial Dilution
(§3) • 1. for water soluble pyrido[3,2-d]pyrimidine derivatives, a volume of 500 μL of solution in cell media (DMEM, 10% FBS, P/S, L-Glutamine) was prepared with a concentration being twice the concentration of the starting final serial dilution concentration. A volume of 150 μL of the solution was added to the pre-specified wells in column 1 of a 96-well cell culture plate (PerkinElmer, white plate, cat. #6005181, for EC50 assay; black plate, cat. #6005182 for CC50 assay). The rest of the plate, columns 2-12, was filled with 100 μL of cell media. The plate was then placed on a Precision 2000 Workstation to start the serial dilution. Compounds were diluted three times each step from column 1 to column 10. Column 11 was used as a blank control (no compound added). • 2. for pyrido[3,2-d]pyrimidine derivatives requiring DMSO to dissolve, serial dilution is performed in 50% DMSO in a 384-well plate. A solution containing a compound at 100-fold concentration of the starting final serial dilution concentration was prepared in 50% DMSO and added to the pre-specified wells in column 1 of a polypropylene 384-well plate. The plate was then placed on a Precision 2000 Workstation to start the serial dilution. After the serial dilution, a volume of 2 μL of the solution was transferred from the 384-well plate to a 96-well cell culture plate containing 100 μL of cell media on a Biomek FX Workstation. The DMSO concentration in the final assay condition was 0.5% after cells are added to the plate and the total volume in each well is brought to 200 μL.
(§4) Step 2: to each well of the serial dilution plate prepared above, 100 μL of cell media containing 6000 suspended Huh-7 HCV replicon cells was added with a Multidrop workstation. The plates were incubated for 3 days at 37° C. with 5% CO2.
(§5) • a) for the EC50 assay, the media in a 96-well cell culture plate was aspirated with a Biotek EL405 plate-washer. A volume of 200 μL of a solution containing a 1:1 mixture of cell-lysis buffer (Promega, Luciferase Cell Culture Lysis 5× Reagent, cat. #E1531) and luciferase substrate solution (Promega, Luciferase Assay, cat.#E4550) was added to each well of the plate with Multidrop. The plate was incubated for 30 minutes at room temperature before the luminescence signal was measured with a TopCount plate-reader. • b) for the CC50 assay, a volume of 100 μL of pre-mixed CellTiter-Glo (Promega, cat.#G7572) solution is added directly to the cell culture in each well of the plate and the luminescence signal is measured with a TopCount plate-reader after 10 minutes of incubation at room temperature.

[2] = CC50 assay (CellTiter-Glo) in Huh-7 HCV replicon cells; format: cell-based, human; settings: human, 3 days incubation, CellTiter-Glo readout
Method: as §1, §2, §3, §4, §5

Question: For CCOc1nc(NCc2ccc(F)cc2)nc2ccc(-c3ccc(NC(N)=O)cc3)nc12 [Example 75, {4-[4-Ethoxy-2-(4-fluoro-benzylamino)-pyrido[3,2-d]pyrimidin-6-yl]-phenyl}-urea], which EC50 [1] is on record?
Answer: < 0.1 µM

Question: And the CC50 at 3 days [2]?
Answer: > 25 µM

Question: What does the source list for CCOc1nc(NCc2ccc(F)cc2)nc2ccc(-c3ccc(N4CC(O)CC4=O)cc3)nc12 (stereo not shown) [Example 76, 1-{4-[4-Ethoxy-2-(4-fluoro-benzylamino)-pyrido[3,2-d]pyrimidin-6-yl]-phenyl}-4-hydroxy-pyrrolidin-2-one]?
Answer: EC50 [1]: < 0.1 µM; CC50 at 3 days [2]: 5 to 25 µM

Question: With CCOc1nc(NCc2ccc(F)cc2)nc2ccc(-c3ccc4[nH]ncc4c3)nc12 [Example 77, [4-Ethoxy-6-(1H-indazol-5-yl)-pyrido[3,2-d]pyrimidin-2-yl]-(4-fluoro-benzyl)-amine] as the compound, how does the EC50 [1] read?
Answer: < 0.1 µM

Question: And the CC50 at 3 days [2]?
Answer: 5 to 25 µM

Question: What does the source list for CCOc1nc(NCc2ccc(F)cc2)nc2ccc(-c3ccc4c(c3)CC(=O)N4)nc12 [Example 78, 5-[4-Ethoxy-2-(4-fluoro-benzylamino)-pyrido[3,2-d]pyrimidin-6-yl]-1,3-dihydro-indol-2-one]?
Answer: EC50 [1]: < 0.1 µM; CC50 at 3 days [2]: 5 to 25 µM

Question: What does the source list for CCOc1nc(NCc2ccc(F)cc2)nc2ccc(-c3ccc(NC(=O)C4CC4)nc3)nc12 [Example 79, Cyclopropanecarboxylic acid {5-[4-ethoxy-2-(4-fluoro-benzylamino)-pyrido[3,2-d]pyrimidin-6-yl]-pyridin-2-yl}-amide]?
Answer: EC50 [1]: < 0.1 µM; CC50 at 3 days [2]: 5 to 25 µM

Question: Which EC50 [1] does the source give for CCOc1nc(NCc2ccc(F)cc2)nc2ccc(-c3cnc(NC(=O)C4CC4)nc3)nc12 [Example 80, Cyclopropanecarboxylic acid {5-[4-ethoxy-2-(4-fluoro-benzylamino)-pyrido[3,2-d]pyrimidin-6-yl]-pyrimidin-2-yl}-amide] here?
Answer: < 0.1 µM

Question: What about the CC50 at 3 days [2] of the same compound?
Answer: 5 to 25 µM

Question: Which EC50 [1] does the source give for CCOc1nc(NCc2ccc(F)cc2)nc2ccc(-c3cccc(NS(=O)(=O)CCN4CCCC4)c3)nc12 [Example 81, 2-Pyrrolidin-1-yl-ethanesulfonic acid {3-[4-ethoxy-2-(4-fluoro-benzylamino)-pyrido[3,2-d]pyrimidin-6-yl]-phenyl}-amide] here?
Answer: < 0.1 µM

Question: What about the CC50 at 3 days [2] of the same compound?
Answer: < 5 µM

Question: Which EC50 [1] does the source give for CCOc1nc(NCc2ccc(F)cc2)nc2ccc(-c3cccc(NS(=O)(=O)C4CC4)c3)nc12 [Example 82, Cyclopropanesulfonic acid {3-[4-ethoxy-2-(4-fluoro-benzylamino)-pyrido[3,2-d]pyrimidin-6-yl]-phenyl}-amide] here?
Answer: < 0.1 µM

Question: What about the CC50 at 3 days [2] of the same compound?
Answer: < 5 µM

Question: For CCOc1nc(NCc2ccc(F)cc2)nc2ccc(-c3ccc(S(N)(=O)=O)cc3)nc12 [Example 83, 4-[4-Ethoxy-2-(4-fluoro-benzylamino)-pyrido[3,2-d]pyrimidin-6-yl]-benzenesulfonamide], which EC50 [1] is on record?
Answer: < 0.1 µM

Question: What about the CC50 at 3 days [2] of the same compound?
Answer: 5 to 25 µM

Question: With CCOc1nc(NCc2ccc(F)cc2)nc2ccc(-c3cccc(NS(=O)(=O)N(C)C)c3)nc12 [Example 84, N′-{3-[4-Ethoxy-2-(4-fluoro-benzylamino)-pyrido[3,2-d]pyrimidin-6-yl]-phenyl}-N.N-dimethyl methanesulfonyl urea] as the compound, how does the EC50 [1] read?
Answer: < 0.1 µM

Question: What about the CC50 at 3 days [2] of the same compound?
Answer: < 5 µM

Question: For CCOc1nc(NCc2ccc(F)cc2)nc2ccc(-c3cccc(S(N)(=O)=O)c3)nc12 [Example 85, 3-[4-Ethoxy-2-(4-fluoro-benzylamino)-pyrido[3,2-d]pyrimidin-6-yl]-benzenesulfonamide], which EC50 [1] is on record?
Answer: < 0.1 µM

Question: And the CC50 at 3 days [2]?
Answer: 5 to 25 µM

Question: Which results are given for CCOc1nc(NCc2ccc(F)cc2)nc2ccc(-c3ccc(N4CCC(O)C4=O)cc3)nc12 (stereo not shown) [Example 86, 1-{4-[4-Ethoxy-2-(4-fluoro-benzylamino)-pyrido[3,2-d]pyrimidin-6-yl]-phenyl}-3-hydroxy-pyrrolidin-2-one]?
Answer: EC50 [1]: < 0.1 µM; CC50 at 3 days [2]: < 5 µM

Question: Which EC50 [1] does the source give for CCOc1nc(NCc2ccc(F)cc2)nc2ccc(-c3ccc(F)nc3)nc12 [Example 87, [4-Ethoxy-6-(6-fluoro-pyridin-3-yl)-pyrido[3,2-d]pyrimidin-2-yl]-(4-fluoro-benzyl)-amine] here?
Answer: < 0.1 µM

Question: And the CC50 at 3 days [2]?
Answer: < 5 µM

Question: Which results are given for CCOc1nc(NCc2ccc(F)cc2)nc2ccc(-c3ccc(NC(=O)[C@@H]4C[C@@H](O)CN4)cc3)nc12 [Example 88, 4-Hydroxy-pyrrolidine-2-carboxylic acid {4-[4-ethoxy-2-(4-fluoro-benzylamino)-pyrido[3,2-d]pyrimidin-6-yl]-phenyl}-amide]?
Answer: EC50 [1]: < 0.1 µM; CC50 at 3 days [2]: 5 to 25 µM

Question: Which EC50 [1] does the source give for CCOc1nc(NCc2ccc(F)cc2)nc2ccc(-c3ccc(NC(=O)[C@@H]4CCCN4)cc3)nc12 [Example 89, Pyrrolidine-2-carboxylic acid {4-[4-ethoxy-2-(4-fluoro-benzylamino)-pyrido[3,2-d]pyrimidin-6-yl]-phenyl}-amide] here?
Answer: < 0.1 µM

Question: And the CC50 at 3 days [2]?
Answer: < 5 µM

Question: Which results are given for CCOc1nc(NCc2ccc(F)cc2)nc2ccc(-c3ccc(NC(=O)[C@H]4CCNC4)c(F)c3)nc12 [Example 90, Pyrrolidine-3-carboxylic acid {4-[4-ethoxy-2-(4-fluoro-benzylamino)-pyrido[3,2-d]pyrimidin-6-yl]-2-fluoro-phenyl}-amide]?
Answer: EC50 [1]: < 0.1 µM; CC50 at 3 days [2]: < 5 µM

Question: With CCOc1nc(NCc2ccc(F)cc2)nc2ccc(-c3ccc(NC(=O)[C@H]4CCNC4)cc3)nc12 [Example 91, Pyrrolidine-3-carboxylic acid {4-[4-ethoxy-2-(4-fluoro-benzylamino)-pyrido[3,2-d]pyrimidin-6-yl]-phenyl}-amide] as the compound, how does the EC50 [1] read?
Answer: < 0.1 µM

Question: And the CC50 at 3 days [2]?
Answer: < 5 µM

Question: What does the source list for CCOc1nc(NCc2ccc(F)cc2)nc2ccc(-c3ccc(NC(=O)OCCN4CCCC4)cc3)nc12 [Example 92, {4-[4-Ethoxy-2-(4-fluoro-benzylamino)-pyrido[3,2-d]pyrimidin-6-yl]-phenyl}-carbamic acid 2-pyrrolidin-1-yl-ethyl ester]?
Answer: EC50 [1]: < 0.1 µM; CC50 at 3 days [2]: < 5 µM

Question: What does the source list for CCOc1nc(NCc2ccc(F)cc2)nc2ccc(-c3ccc(NC(=O)NCCN4CCCC4)cc3)nc12 [Example 93, 1-{4-[4-Ethoxy-2-(4-fluoro-benzylamino)-pyrido[3,2-d]pyrimidin-6-yl]-phenyl}-3-(2-pyrrolidin-1-yl-ethyl)-urea]?
Answer: EC50 [1]: < 0.1 µM; CC50 at 3 days [2]: < 5 µM

Question: Which EC50 [1] does the source give for CCOc1nc(NCc2ccc(F)cc2)nc2ccc(-c3ccc(C(=O)NC(C)(C)CO)cc3)nc12 [Example 94, 4-[4-Ethoxy-2-(4-fluoro-benzylamino)-pyrido[3,2-d]pyrimidin-6-yl]-N-(2-hydroxy-1,1-dimethyl-ethyl)-benzamide] here?
Answer: < 0.1 µM

Question: And the CC50 at 3 days [2]?
Answer: 5 to 25 µM

Question: For CCOc1nc(NCc2ccc(F)cc2)nc2ccc(-c3ccc(C(=O)NC(C)(C)CN4CCCC4)cc3)nc12 [Example 95, N-(1,1-Dimethyl-2-pyrrolidin-1-yl-ethyl)-4-[4-ethoxy-2-(4-fluoro-benzylamino)-pyrido[3,2-d]pyrimidin-6-yl]-benzamide], which EC50 [1] is on record?
Answer: < 0.1 µM

Question: And the CC50 at 3 days [2]?
Answer: < 5 µM

Question: What does the source list for CCOc1nc(NC2(c3ccc(F)cc3)CC2)nc2ccc(-c3ccc(C(=O)NC(C)(C)CN4CCCC4)cc3)nc12 [Example 96, N-(1,1-Dimethyl-2-pyrrolidin-1-yl-ethyl)-4-{4-ethoxy-2-[1-(4-fluoro-phenyl)-cyclopropylamino]-pyrido[3,2-d]pyrimidin-6-yl}-benzamide]?
Answer: EC50 [1]: < 0.1 µM; CC50 at 3 days [2]: < 5 µM

Question: What does the source list for CCOc1nc(NCc2ccc(F)cc2)nc2ccc(-c3ccc(CO)o3)nc12 [Example 97, {5-[4-Ethoxy-2-(4-fluoro-benzylamino)-pyrido[3,2-d]pyrimidin-6-yl]-furan-2-yl}-methanol]?
Answer: EC50 [1]: < 0.1 µM; CC50 at 3 days [2]: 5 to 25 µM

Question: Which results are given for CCOc1nc(NCc2ccc(F)cc2)nc2ccc(-c3ccc(C(=O)NC4(C#N)CC4)cc3)nc12 [Example 98, N-(1-Cyano-cyclopropyl)-4-[4-ethoxy-2-(4-fluoro-benzylamino)-pyrido[3,2-d]pyrimidin-6-yl]-benzamide]?
Answer: EC50 [1]: < 0.1 µM; CC50 at 3 days [2]: > 25 µM

Question: Which results are given for CCOc1nc(NCc2ccc(F)cc2)nc2ccc(-c3ccc(NC(=O)C4(N)CC4)cc3)nc12 [Example 99, 1-Amino-cyclopropanecarboxylic acid {4-[4-ethoxy-2-(4-fluoro-benzylamino)-pyrido[3,2-d]pyrimidin-6-yl]-phenyl}-amide]?
Answer: EC50 [1]: < 0.1 µM; CC50 at 3 days [2]: < 5 µM

Question: Which EC50 [1] does the source give for CCOc1nc(NCc2ccc(F)cc2)nc2ccc(-c3cnc(N)s3)nc12 [Example 100, [6-(2-Amino-thiazol-5-yl)-4-ethoxy-pyrido[3,2-d]pyrimidin-2-yl]-(4-fluoro-benzyl)-amine] here?
Answer: < 0.1 µM

Question: And the CC50 at 3 days [2]?
Answer: < 5 µM
